From patent US20230339939A1 (Bayer Aktiengesellschaft, priority 2020, published 2023)

How the values were obtained:
CSNK1A1 = CSNK1A1 (Homo sapiens (Human), UniProt P48729); assay: CSNK1A1 Assay 1 (ADP-Glo, 1 μM ATP, substrate Btn-Ahx-[…]); assay type: biochemical; details: median, comparison compounds of WO 2016/120196 (Table 4), read-out: CSNK1A1 Assay 1 IC50 [mol/l] (median)
Procedure: CSNK1A1-inhibitory activity of compounds of the present invention in presence of 1 μM adenosine-tri-phosphate (ATP) was quantified employing the CSNK1A1 assay as described in the following paragraphs. In essence, the enzyme activity is measured by quantification of the adenosine-di-phosphate (ADP), which is generated as a co-product of the enzyme reaction, via the “ADP-Glo™ Kinase Assay” kit from the company Promega. This detection system works as follows: In a first step the ATP not consumed in the kinase reaction is quantitatively converted to cAMP employing an adenylate cyclase (“ADP-Glo-reagent”), then the adenylate cyclase is stopped and the ADP generated in the kinase reaction converted to ATP which generates in a luciferase-based reaction a glow-luminescence signal (“Kinase Detection Reagent”).
Recombinant fusion protein of N-terminal Glutathion-S-Transferase (GST) and full-length human CSNK1A1, expressed by baculovirus infected insect cells and purified via Glutathion affinity chromatography, was purchased from Life Technologies (product no. PV4174) and used as enzyme. As substrate for the kinase reaction the biotinylated peptide Btn-Ahx-[…] (C-terminus in amide form) was used which can be purchased e.g. from the company Biosyntan (Berlin-Buch, Germany). […]

[1] = biological target: wild-type Epidermal Growth Factor Receptor (EGFR) (Homo sapiens (Human), UniProt P00533); assay: WT-EGFR Kinase Assay (TR-FRET, 2 mM ATP); assay type: biochemical; details: read-out: EGFR Wildtype-2 mM ATP IC50 [mol/l] (median), comparison compounds of WO 2016/120196 (Table 4)
Source text: Inhibitory activity of compounds of the present invention against wild-type Epidermal Growth Factor Receptor (EGFR) was quantified employing the TR-FRET based EGFR assay as described in the following paragraphs.
Recombinant fusion protein of N-terminal Glutathion-S-Transferase (GST) and a fragment of human EGFR (amino acids R669 to A1210), expressed in Sf9 insect cells and purified via affinity chromatography using Glutathion Sepharose as described above, was used as kinase. As substrate for the kinase reaction the biotinylated peptide biotin-Ahx-[…] (C-terminus in amide form) was used which can be purchased e.g. form the company Biosynthan GmbH (Berlin-Buch, Germany).
For the assay 50 nl of a 100 fold concentrated solution of the test compound in DMSO was pipetted into either a black low volume 384 well microtiter plate or a black 1536 well microtiter plate (both Greiner Bio-One, Frickenhausen, Germany), 2 μL of a solution of EGFR in aqueous assay buffer [50 mM Hepes pH 7.0, 10 mM MgCl2, 1 mM dithiothreitol, 0.5 mM EGTA, 0.3 mM activated sodium ortho-vanadate, 0.005% (w/v) bovine serum albumin, 0.005% (v/v) Tween-20] were added and the mixture was incubated for 15 min at 22° C. to allow pre-binding of the test compounds to the enzyme before the start of the kinase reaction. […] The concentration of EGFR was adjusted depending of the activity of the enzyme lot and was chosen appropriate to have the assay in the linear range, typical concentration was 7.6 pg/μL. The reaction was stopped by the addition of 3 μL of a solution of HTRF detection reagents (83.3 nM streptavidine-XL665 [Cisbio Bioassays, Codolet, France] and 1.67 nM PT66-Tb-Cryptate, a terbium-cryptate labelled anti-phospho-tyrosine antibody from Cisbio Bioassays [instead of the PT66-Tb-cryptate PT66-Eu-Chelate from Perkin Elmer can also be used]) in an aqueous EDTA-solution (133.3 mM EDTA, 0.2% (w/v) bovine serum albumin in 50 mM HEPES pH 7.5).
The resulting mixture was incubated 1 h at 22° C. to allow the binding of the biotinylated phosphorylated peptide to the streptavidine-XL665 and the PT66-Tb-Cryptate. Subsequently the amount of phosphorylated substrate was evaluated by measurement of the resonance energy transfer from the PT66-Tb-Cryptate to the streptavidine-XL665. Therefore, the fluorescence emissions at 620 nm and 665 nm after excitation at 337 nm were measured in a HTRF reader, e.g. a Pherastar (BMG Labtechnologies, Offenburg, Germany) or a Viewlux (Perkin-Elmer). The ratio of the emissions at 665 nm and at 622 nm was taken as the measure for the amount of phosphorylated substrate.

Sequence of CSNK1A1 (P48729 whole entry): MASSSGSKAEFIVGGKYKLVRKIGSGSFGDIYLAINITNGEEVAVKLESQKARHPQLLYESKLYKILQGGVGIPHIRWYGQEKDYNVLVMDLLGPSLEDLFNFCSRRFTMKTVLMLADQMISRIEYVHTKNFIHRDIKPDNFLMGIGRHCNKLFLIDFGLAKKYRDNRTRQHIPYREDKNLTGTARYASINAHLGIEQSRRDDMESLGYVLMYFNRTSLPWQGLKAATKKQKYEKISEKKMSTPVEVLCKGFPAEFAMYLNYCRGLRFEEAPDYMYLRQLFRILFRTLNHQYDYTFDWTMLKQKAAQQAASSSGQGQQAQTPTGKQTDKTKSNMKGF

In the case of “2-(4-fluorophenyl)-N-{4-[7-(2-oxopyrrolidin-1-yl)-3-(pyridin-2-yl)-1H-pyrrolo[3,2-b]pyridin-2-yl]pyridin-2-yl}acetamide [Example 40]”, the IC50 (CSNK1A1) is reported as 24.1 nM and the IC50 [1] is reported as 85.5 nM.
